# Reference: US9062078B2, “Substituted 7-azabicyles and their use as orexin receptor modulators” (priority 2013, dated 2015)
# Where two headings read alike, the source gives them in different places.
# Columns and labels:
# human orexin 1 receptor = human orexin 1 receptor (Homo sapiens (Human), UniProt O43613); experiment: Human orexin 1 receptor radioligand binding (competitive, [3H]-SB674042, CHO cell preparations)
# human orexin 2 receptor = human orexin 2 receptor (Homo sapiens (Human), UniProt O43614); experiment: Human orexin 2 receptor radioligand binding (competitive, [3H]-EMPA, HEK293 cell preparations)
# human orexin 2 receptor, sequence (O43614 whole entry): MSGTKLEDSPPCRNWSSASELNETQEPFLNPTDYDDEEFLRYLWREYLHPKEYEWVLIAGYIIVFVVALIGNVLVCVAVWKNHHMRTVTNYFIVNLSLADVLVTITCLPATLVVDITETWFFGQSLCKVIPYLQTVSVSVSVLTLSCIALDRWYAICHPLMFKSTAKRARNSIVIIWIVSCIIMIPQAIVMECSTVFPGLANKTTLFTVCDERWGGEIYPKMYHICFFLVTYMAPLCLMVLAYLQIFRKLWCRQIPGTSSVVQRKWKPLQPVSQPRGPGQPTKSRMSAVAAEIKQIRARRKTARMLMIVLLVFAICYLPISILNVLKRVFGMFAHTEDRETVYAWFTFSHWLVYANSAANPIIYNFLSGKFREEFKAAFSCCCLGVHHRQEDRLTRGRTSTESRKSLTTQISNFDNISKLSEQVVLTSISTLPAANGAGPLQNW
# rat orexin 1 receptor = rat orexin 1 receptor (Rattus norvegicus, UniProt P56718); experiment: Rat orexin 1 receptor radioligand binding (competitive, [3H]-SB674042, HEK293 cell preparations)
# [1] = human orexin 1 receptor, [3H]-SB674042 competition binding, read-out: hOX1 Ki (nm)
# [2] = human orexin 2 receptor, [3H]-EMPA competition binding, read-out: hOX2 Ki (nm)
# [3] = rat orexin 1 receptor, [3H]-SB674042 competition binding, read-out: rOX1 Ki (nm)
# human orexin 1 receptor, sequence (O43613 whole entry): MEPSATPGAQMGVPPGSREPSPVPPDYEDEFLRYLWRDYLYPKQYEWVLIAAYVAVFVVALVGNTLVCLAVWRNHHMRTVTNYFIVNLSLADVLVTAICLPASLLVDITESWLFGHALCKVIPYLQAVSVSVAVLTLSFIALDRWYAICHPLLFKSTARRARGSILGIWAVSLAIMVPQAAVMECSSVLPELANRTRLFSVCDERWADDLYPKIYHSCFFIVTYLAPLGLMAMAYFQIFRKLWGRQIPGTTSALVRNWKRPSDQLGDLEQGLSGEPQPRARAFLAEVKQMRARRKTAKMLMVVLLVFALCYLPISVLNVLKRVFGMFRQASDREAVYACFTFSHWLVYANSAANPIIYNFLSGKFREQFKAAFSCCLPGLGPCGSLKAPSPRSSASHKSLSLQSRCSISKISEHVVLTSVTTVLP
SMILES,Ki (human orexin 1 receptor; [1]) [nM],Ki (human orexin 2 receptor; [2]) [nM],Ki (rat orexin 1 receptor; [3]) [nM],Ki (human orexin 1 receptor; hOX1 Ki (nm)) [nM],Ki (rat orexin 1 receptor; rOX1 Ki (nm)) [nM],Ki (human orexin 2 receptor; hOX2 Ki (nm)) [nM]
"Cc1ccc(-c2nc(C)no2)c(C(=O)N2C3CCC2C(COc2ccc(F)cn2)C3)n1 (racemic) [Example 66, (±)-(2-(((5-fluoropyridin-2-yl)oxy)methyl)-7-azabicyclo[2.2.1]heptan-7-yl)(6-methyl-3-(3-methyl-1,2,4-oxadiazol-5-yl)pyridin-2-yl)methanone]",293,620,197,,,
"Cc1ccc(-n2ccc(C)n2)c(C(=O)N2C3CCC2C(COc2ccc(F)cn2)C3)n1 (racemic) [Example 67, (±)-(2-(((5-fluoropyridin-2-yl)oxy)methyl)-7-azabicyclo[2.2.1]heptan-7-yl)(6-methyl-3-(3-methyl-1H-pyrazol-1-yl)pyridin-2-yl)methanone]",69,258,48,,,
"Cc1ccc(N2CCCC2)c(C(=O)N2C3CCC2C(COc2ccc(F)cn2)C3)n1 (racemic) [Example 68, (±)-(2-(((5-fluoropyridin-2-yl)oxy)methyl)-7-azabicyclo[2.2.1]heptan-7-yl)(6-methyl-3-(pyrrolidin-1-yl)pyridin-2-yl)methanone]",22,576,27,,,
"Cc1cc(-c2ccc(C)nc2C(=O)N2C3CCC2C(COc2ccc(F)cn2)C3)on1 (racemic) [Example 69, (±)-(2-(((5-fluoropyridin-2-yl)oxy)methyl)-7-azabicyclo[2.2.1]heptan-7-yl)(6-methyl-3-(3-methylisoxazol-5-yl)pyridin-2-yl)methanone]",,174,,64,40,
"Cc1ccc(-n2cccn2)c(C(=O)N2C3CCC2C(COc2ccc(F)cn2)C3)n1 (racemic) [Example 70, (±)-(2-(((5-fluoropyridin-2-yl)oxy)methyl)-7-azabicyclo[2.2.1]heptan-7-yl)(6-methyl-3-(1H-pyrazol-1-yl)pyridin-2-yl)methanone]",62,624,88,,,
"Cc1ccnc(C(=O)N2C3CCC2C(COc2ccccn2)C3)c1-n1nccn1 (racemic) [Example 72, (±)-(4-methyl-3-(2H-1,2,3-triazol-2-yl)pyridin-2-yl)(2-((pyridin-2-yloxy)methyl)-7-azabicyclo[2.2.1]heptan-7-yl)methanone]",162,2400,137,,,
"CCOc1ccc2cccnc2c1C(=O)N1C2CCC1C(COc1ccccn1)C2 (racemic) [Example 75, (±)-(7-ethoxyquinolin-8-yl)(2-((pyridin-2-yloxy)methyl)-7-azabicyclo[2.2.1]heptan-7-yl)methanone]",7,220,18,,,
"Cn1cc(-c2ccccc2)c(C(=O)N2C3CCC2C(COc2ccccn2)C3)n1 (racemic) [Example 77, (±)-(1-methyl-4-phenyl-1H-pyrazol-3-yl)(2-((pyridin-2-yloxy)methyl)-7-azabicyclo[2.2.1]heptan-7-yl)methanone]",66,,103,,,867
"COc1ccc2cccnc2c1C(=O)N1C2CCC1C(COc1ccccn1)C2 (racemic) [Example 88, (±)-(7-methoxyquinolin-8-yl)(2-((pyridin-2-yloxy)methyl)-7-azabicyclo[2.2.1]heptan-7-yl)methanone]",49,690,47,,,
"CCOc1ccc2ccccc2c1C(=O)N1C2CCC1C(COc1ccccn1)C2 (racemic) [Example 89, (±)-(2-ethoxynaphthalen-1-yl)(2-((pyridin-2-yloxy)methyl)-7-azabicyclo[2.2.1]heptan-7-yl)methanone]",10,38,11,,,
"Cc1nc(C(=O)N2C3CCC2C(COc2ccccn2)C3)c(-c2ccccc2)s1 (racemic) [Example 92, (±)-(2-methyl-5-phenylthiazol-4-yl)(2-((pyridin-2-yloxy)methyl)-7-azabicyclo[2.2.1]heptan-7-yl)methanone]",,218,,11,20,
"Cc1ccc(-c2ncco2)c(C(=O)N2C3CCC2C(COc2ccccn2)C3)n1 (racemic) [Example 93, (±)-(6-methyl-3-(oxazol-2-yl)pyridin-2-yl)(2-((pyridin-2-yloxy)methyl)-7-azabicyclo[2.2.1]heptan-7-yl)methanone]",73,,40,,,836
"Cc1cc(-c2ccc(C)nc2C(=O)N2C3CCC2C(COc2ccccn2)C3)on1 (racemic) [Example 94, (±)-(6-methyl-3-(3-methylisoxazol-5-yl)pyridin-2-yl)(2-((pyridin-2-yloxy)methyl)-7-azabicyclo[2.2.1]heptan-7-yl)methanone]",200,2100,170,,,
"Cc1cnn(-c2ccc(C)nc2C(=O)N2C3CCC2C(COc2ccccn2)C3)c1 (racemic) [Example 96, (±)-(6-methyl-3-(4-methyl-1H-pyrazol-1-yl)pyridin-2-yl)(2-((pyridin-2-yloxy)methyl)-7-azabicyclo[2.2.1]heptan-7-yl)methanone]",76,950,70,,,
"Cc1ccc(N2CCCC2)c(C(=O)N2C3CCC2C(COc2ccccn2)C3)n1 (racemic) [Example 97, (±)-(6-methyl-3-(pyrrolidin-1-yl)pyridin-2-yl)(2-((pyridin-2-yloxy)methyl)-7-azabicyclo[2.2.1]heptan-7-yl)methanone]",32,840,35,,,
"COc1cccc(-n2nccn2)c1C(=O)N1C2CCC1C(COc1ccc(F)cn1)C2 (racemic) [Example 108, (±)-(2-(((5-fluoropyridin-2-yl)oxy)methyl)-7-azabicyclo[2.2.1]heptan-7-yl)(2-methoxy-6-(2H-1,2,3-triazol-2-yl)phenyl)methanone]",12,12,10,,,
"O=C(c1cc(F)ccc1-c1ccn[nH]1)N1C2CCC1C(COc1ccc(F)cn1)C2 (racemic) [Example 109, (±)-(5-fluoro-2-(1H-pyrazol-5-yl)phenyl)(2-(((5-fluoropyridin-2-yl)oxy)methyl)-7-azabicyclo[2.2.1]heptan-7-yl)methanone]",,,,20,29,99
"Cc1cccc(-n2nccn2)c1C(=O)N1C2CCC1C(COc1ccc(F)cn1)C2 (racemic) [Example 110, (±)-(2-(((5-fluoropyridin-2-yl)oxy)methyl)-7-azabicyclo[2.2.1]heptan-7-yl)(2-methyl-6-(2H-1,2,3-triazol-2-yl)phenyl)methanone]",67,94,54,,,
"COc1ccc(-n2nccn2)c(C(=O)N2C3CCC2C(COc2ccc(F)cn2)C3)c1 (racemic) [Example 114, (±)-(2-(((5-fluoropyridin-2-yl)oxy)methyl)-7-azabicyclo[2.2.1]heptan-7-yl)(5-methoxy-2-(2H-1,2,3-triazol-2-yl)phenyl)methanone]",,,,48,20,73
"O=C(c1c(F)cccc1-n1nccn1)N1C2CCC1C(COc1ccc(F)cn1)C2 (racemic) [Example 115, (±)-(2-fluoro-6-(2H-1,2,3-triazol-2-yl)phenyl)(2-(((5-fluoropyridin-2-yl)oxy)methyl)-7-azabicyclo[2.2.1]heptan-7-yl)methanone]",,,,78,57,108
"O=C(c1ccc(F)cc1-n1nccn1)N1C2CCC1C(COc1ccc(F)cn1)C2 (racemic) [Example 116, (±)-(4-fluoro-2-(2H-1,2,3-triazol-2-yl)phenyl)(2-(((5-fluoropyridin-2-yl)oxy)methyl)-7-azabicyclo[2.2.1]heptan-7-yl)methanone]",250,315,142,,,
"O=C(c1cccc(F)c1-n1nccn1)N1C2CCC1C(COc1ccc(F)cn1)C2 (racemic) [Example 117, (±)-(3-fluoro-2-(2H-1,2,3-triazol-2-yl)phenyl)(2-(((5-fluoropyridin-2-yl)oxy)methyl)-7-azabicyclo[2.2.1]heptan-7-yl)methanone]",,245,,82,62,
"O=C(c1cc(Cl)ccc1-n1nccn1)N1C2CCC1C(COc1ccc(F)cn1)C2 (racemic) [Example 120, (±)-(5-chloro-2-(2H-1,2,3-triazol-2-yl)phenyl)(2-(((5-fluoropyridin-2-yl)oxy)methyl)-7-azabicyclo[2.2.1]heptan-7-yl)methanone]",14,124,15,,,
"Cc1ccc(C(=O)N2C3CCC2C(COc2ccc(F)cn2)C3)c(-n2nccn2)c1 (racemic) [Example 121, (±)-(2-(((5-fluoropyridin-2-yl)oxy)methyl)-7-azabicyclo[2.2.1]heptan-7-yl)(4-methyl-2-(2H-1,2,3-triazol-2-yl)phenyl)methanone]",68,340,78,,,
"Cc1ccc(C(=O)N2C3CCC2C(COc2ccc(F)cn2)C3)c(-c2ncccn2)c1 (racemic) [Example 122, (±)-(2-(((5-fluoropyridin-2-yl)oxy)methyl)-7-azabicyclo[2.2.1]heptan-7-yl)(4-methyl-2-(pyrimidin-2-yl)phenyl)methanone]",154,1000,118,,,
"O=C(c1cccc(F)c1-c1ncccn1)N1C2CCC1C(COc1ccc(F)cn1)C2 (racemic) [Example 124, (±)-(3-fluoro-2-(pyrimidin-2-yl)phenyl)(−2-(((5-fluoropyridin-2-yl)oxy)methyl)-7-azabicyclo[2.2.1]heptan-7-yl)methanone]",,355,,52,83,
"Cc1cccc(C(=O)N2C3CCC2C(COc2ccc(F)cn2)C3)c1-n1nccn1 (racemic) [Example 125, (±)-(2-(((5-fluoropyridin-2-yl)oxy)methyl)-7-azabicyclo[2.2.1]heptan-7-yl)(3-methyl-2-(2H-1,2,3-triazol-2-yl)phenyl)methanone]",,132,,29,47,
